From ChEMBL document CHEMBL1126579, “6-Azasteroids: potent dual inhibitors of human type 1 and 2 steroid 5 alpha-reductase” (J Med Chem, 1993)

Legend:
[1] = molecular target: T1, 3-oxo-5-alpha-steroid 4-dehydrogenase 1 (Homo sapiens, UniProt P18405); test: Inhibition of recombinant human 5-alpha reductase-1 […] after pre-incubation for 10 minutes
T1 sequence (P18405 whole entry): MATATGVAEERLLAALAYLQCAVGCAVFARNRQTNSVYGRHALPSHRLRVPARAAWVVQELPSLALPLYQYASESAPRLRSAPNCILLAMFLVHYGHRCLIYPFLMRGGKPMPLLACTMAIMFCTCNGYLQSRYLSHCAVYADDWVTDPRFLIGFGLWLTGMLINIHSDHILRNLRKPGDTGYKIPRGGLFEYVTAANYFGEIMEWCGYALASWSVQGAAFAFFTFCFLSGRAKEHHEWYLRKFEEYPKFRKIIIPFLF

[2] = molecular target: T2, 3-oxo-5-alpha-steroid 4-dehydrogenase 2 (Homo sapiens, UniProt P31213); test: Inhibition of recombinant human 5-alpha reductase-2 […] after pre-incubation for 10 minutes
T2 sequence (P31213 whole entry): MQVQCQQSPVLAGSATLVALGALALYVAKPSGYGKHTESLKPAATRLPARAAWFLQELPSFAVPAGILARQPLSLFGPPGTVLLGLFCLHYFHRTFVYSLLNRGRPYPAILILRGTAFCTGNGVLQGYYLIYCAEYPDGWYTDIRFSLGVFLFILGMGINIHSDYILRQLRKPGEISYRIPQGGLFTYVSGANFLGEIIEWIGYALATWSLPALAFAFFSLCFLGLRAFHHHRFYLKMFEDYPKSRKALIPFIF

[3] = system: Rattus norvegicus; test: In vivo evaluation in chronic castrated rat to inhibit T-stimulated prostate growth expressed as percentage reduction; assay type: functional, Prostate gland; design: concentration or dose not given beside the values
[4] = Bioavailability after oral administration in dog; assay type: ADME, organism-based, Canis lupus familiaris; settings: in vivo
[5] = Half-life in dog; assay type: ADME, organism-based, Canis lupus familiaris; settings: in vivo

| SMILES | Ki [1] | IC50 [2] | Reduction [3] | bioavailability [4] | half-life [5] | IC50 [1] |
| --- | --- | --- | --- | --- | --- | --- |
| CON(C)C(=O)[C@H]1CCC2C3CNC4=CC(=O)CC[C@]4(C)C3CC[C@@]21C (some centres undefined) | 2300 nM | 2.4 nM |  |  |  |  |
| C[C@]12CCC(=O)C=C1NCC1C2CC[C@@]2(C)C1CC[C@@H]2C(=O)NC(C1CCCCC1)C1CCCCC1 (some centres undefined) | 20 nM | 0.4 nM | 14% |  |  |  |
| CC(C)N(C(=O)[C@H]1CCC2C3CNC4=CC(=O)CC[C@]4(C)C3CC[C@@]21C)C(C)C (some centres undefined) | 190 nM | 0.36 nM |  |  |  |  |
| C[C@]12CCC(=O)C=C1NCC1C2CC[C@@]2(C)C1CC[C@@H]2C(=O)NC(c1ccc(F)cc1)c1ccc(F)cc1 (some centres undefined) | 20 nM |  | 43% |  |  |  |
| C[C@]12CCC(=O)C=C1NCC1C2CC[C@@]2(C)C1CC[C@@H]2C(=O)N1CCSCC1 (some centres undefined) | 570 nM |  |  |  |  |  |
| C[C@]12CCC(=O)C=C1NCC1C2CC[C@@]2(C)C1CC[C@@H]2C(=O)NC(c1ccccc1)c1ccccc1 (some centres undefined) | 30 nM | 0.09 nM | 43% | 80% |  |  |
| C[C@]12CCC(=O)C=C1NCC1C2CC[C@@]2(C)C1CC[C@@H]2C(=O)NC(c1ccc(Cl)cc1)c1ccc(Cl)cc1 (some centres undefined) | 20 nM | 0.12 nM | 31% |  | 12 h |  |
| CC(C)CC(=O)[C@H]1CCC2C3CNC4=CC(=O)CC[C@]4(C)C3CC[C@@]21C (some centres undefined) | 9 nM | 0.08 nM | 18% |  |  |  |
| CC(C)(C)NC(=O)[C@H]1CCC2C3CNC4=CC(=O)CC[C@]4(C)C3CC[C@@]21C (some centres undefined) | 820 nM |  |  |  |  |  |
| C[C@]12CCC(=O)C=C1NCC1C2CC[C@@]2(C)C1CC[C@@H]2C(=O)N1CCNCC1 (some centres undefined) | 8600 nM |  |  |  |  |  |
| C[C@]12CCC(=O)C=C1NCC1C2CC[C@@]2(C)C1CC[C@@H]2C(=O)N1CCOCC1 (some centres undefined) | 2200 nM | 7.1 nM |  |  |  |  |
| C[C@]12CCC(=O)C=C1NCC1C2CC[C@@]2(C)C1CC[C@@H]2C(=O)N(Cc1ccccc1)Cc1ccccc1 (some centres undefined) | 75 nM |  |  |  |  |  |
| CC(C)(C)NC(=O)[C@H]1CC[C@H]2[C@@H]3CC=C4C=C(C(=O)O)CC[C@]4(C)[C@H]3CC[C@]12C [EPRISTERIDE] | > 5000 nM | 30 nM |  |  |  |  |
| C[C@]12CCC(=O)C=C1NCC1C2CC[C@@]2(C)C1CC[C@@H]2C(=O)NC(c1ccccc1)(c1ccccc1)c1ccccc1 (some centres undefined) | 8.2 nM | 0.09 nM | 4% |  |  |  |
| C[C@]12CCC(=O)C=C1NCC1C2CC[C@@]2(C)C1CC[C@@H]2C(=O)NCc1ccccc1 (some centres undefined) | 360 nM |  |  |  |  |  |
| CC(C)NC(=O)[C@H]1CCC2C3CNC4=CC(=O)CC[C@]4(C)C3CC[C@@]21C (some centres undefined) | 6000 nM |  |  |  |  |  |
| C[C@]12CCC(=O)C=C1NCC1C2CC[C@@]2(C)C1CC[C@@H]2C(=O)NN(c1ccccc1)c1ccccc1 (some centres undefined) | 14 nM | 0.23 nM | 38% |  |  |  |
| CCN(CC)C(=O)[C@H]1CCC2C3CNC4=CC(=O)CC[C@]4(C)C3CC[C@@]21C (some centres undefined) | 750 nM | 1.5 nM |  |  |  |  |
| C[C@]12CCC(=O)C=C1NCC1C2CC[C@@]2(C)C1CC[C@@H]2C(=O)C1[C@H]2C[C@@H]3C[C@@H](C[C@H]1C3)C2 (some centres undefined) | 6.9 nM | 0.04 nM | 26% |  |  |  |
| COC(=O)[C@H]1CCC2C3CNC4=CC(=O)CC[C@]4(C)C3CC[C@@]21C (some centres undefined) | 150 nM |  |  |  |  |  |
| CC(C)(C)NC(=O)[C@H]1CC[C@H]2[C@@H]3CC[C@H]4NC(=O)C=C[C@]4(C)[C@H]3CC[C@]12C [FINASTERIDE] |  | 0.18 nM | 41% |  |  | 150 nM |
| CCN(C)C(=O)[C@H]1CCC2C3CNC4=CC(=O)CC[C@]4(C)C3CC[C@@]21C (some centres undefined) | 720 nM | 2.8 nM |  |  |  |  |
| C[C@]12CCC(=O)C=C1NCC1C2CC[C@@]2(C)C1CC[C@@H]2C(=O)NC12C[C@H]3C[C@@H](C1)C[C@@H](C2)C3 (some centres undefined) | 11 nM |  | 18% |  |  |  |
